Consider one compound from article PMC4601023, “Novel anticancer agent, SQAP, binds to focal adhesion kinase and modulates its activity” (Scientific Reports, 2015).

Test [1] deals with FAK phosphorylation (Y397, Y925) in A549 cells. Kind of test: FAK phosphorylation level in A549, Western blotting. It is filed as cell-based, human. The following applies: A549, fibronectin 10 μg/mL, 1 h treatment. On the procedure:
A549 cells were incubated in a serum-free medium for 48 h in 60 mm dishes (IWAKI, Tokyo, Japan). Then 10 μM SQAP, SQMG or SQP was added and incubated for 30 min followed by addition of fibronectin 10 μg/mL (Sigma, St. Louis, MI, USA) and incubation for another 30 min. FAK phosphorylation level was analyzed by Western blotting as described in the next section.
Cells were harvested and solubilized in RIPA buffer (20 mM Tris-HCl, pH 7.5, 1% Sodium deoxycholate, 150 mM NaCl, 5 mM EDTA, 1% Triton X-100, 0.1% SDS, 0.1%, 1 mM PMSF, 1 mM vanadate and 1 μg/mL leupeptin). Protein quantification was determined using the DC protein assay kit (Bio-Rad, Hercules, CA, USA). A total of 15 μg of each protein sample were separated by SDS–PAGE gels and blotted onto polyvinylidene difluoride membranes (Merck, Kenilworth, NJ, US). After blocking for 1 h with Blocking-One (Nacalai Tesque, Kyoto, Japan), proteins were detected by incubating the membranes with the primary antibody at 4 °C overnight (anti-Y397 2:2000, anti-Y925 5:2000 and anti-FAK 0.5:2000) followed by incubation with horseradish peroxidase-conjugated secondary antibodies at room temperature for 1 h (anti-mouse 0.5:2000 and anti-rabbit 0.4:2000).
A general note: In western blotting, separated proteins are transferred to a membrane and probed.

In test [2] the test system is human lung small cell carcinoma, Lu-65. Kind of test: Tumor xenograft, SQAP plus X-irradiation. It is filed as in vivo, KSN nude mice. The settings on record: 2 mg/kg i.v. five injections plus X-irradiation 8 Gy/fraction x 2; Supplementary Fig. S1, also ref 12. On the procedure:
Cell lines and animal studies: A human lung small cell carcinoma, Lu-65, was obtained from the Cell resource Center for Biomedical Research (Sendai, Japan) and maintained in RPMI-1640 medium supplemented with 10% fetal bovine serum, 100 units/ml penicillin, 100 μg/ml streptomycin, and 1 mM sodium pyruvate at 37 °C in 5% CO2 humidified atmosphere. Viable tumor cell (1 × 106) were implanted subcutanceously into the right hind legs of male KSN nude mice (6–8 weeks old). After the tumor volume reached 50 to 100 mm3, the tumor were treated and the tumor growth was monitored by palpation. The size of the palpable tumors was measured using calipers every two days. The tumor volume (V, […]) was estimated based on the formula as follows; (minor axis)^2 × (major axis) × 0.5.
Treatments: Synthesized SQAP was prepared one day before experimentation, and dissolved in saline at the appropriate concentrations. To analyze the tumor radioresponse, 2 mg/kg SQAP (dissolved in 100 μl of saline) was administered intravenously to the ‘SQAP’ group and ‘Combination’ group (adiministered five times daily from days zero to four). The same amount of saline was injected in the ‘control’ group and ‘X-irradiation’ group. […]

Test [3] relates to Akt phosphorylation at S473 in A549. Kind of test: Akt phosphorylation in A549, Western blotting. It is filed as cell-based, human. The settings on record: A549, fibronectin, 1 h treatment. The procedure: Fibronectin is a glycoprotein located in the extracellular matrix that binds to integrins. […] A549 lung cancer cells have been used before for studying cell migration because of their metastatic model potential. A549 cells are also one of the tumor cell lines sensitive to SQMG[9]. Therefore, we studied the phosphorylation of FAK in A549 cells (Fig. 5C,D). SQAP could inhibit the phosphorylation of FAK at Y397 and Y925 after 1 h treatment in a dose dependent manner. […] We also examined paxillin and Akt phosphorylation in A549 as downstream targets of FAK. […] We hypothesize that SQAP diminish on Akt phosphorylation being more readily in A549 cancer cells than in HUVEC endothelial cells might be due to a higher Akt basal activity on cancer cells.
Cells were harvested and solubilized in RIPA buffer (20 mM Tris-HCl, pH 7.5, 1% Sodium deoxycholate, 150 mM NaCl, 5 mM EDTA, 1% Triton X-100, 0.1% SDS, 0.1%, 1 mM PMSF, 1 mM vanadate and 1 μg/mL leupeptin). Protein quantification was determined using the DC protein assay kit (Bio-Rad, Hercules, CA, USA). A total of 15 μg of each protein sample were separated by SDS–PAGE gels and blotted onto polyvinylidene difluoride membranes (Merck, Kenilworth, NJ, US). […]

The target in another test is T1, ADRM1 (Homo sapiens, UniProt Q16186).
T1 construct: ADRM1 and HR23B human full length proteins were purchased; His-tag; purchased ATgen (Gyeonggi-do, Korea)
Kind of test: SPR analysis, immobilized full length His-ADRM1. It is filed as binding. The following applies: Biacore 3000, CM5 chip, 25 °C, read-out: dissociation constant (KD) for ADRM1. From the text: SPR was utilized as an independent confirmation of the kinetic parameters between SQAP and the putative binding proteins. […] The recombinant proteins were then expressed in Escherichia coli and purified to homogeneity. In addition, full length, His-tagged ADRM1 and GST-tagged HR23B (GST-HR23B) were also used. The proteins were first immobilized on a CM5 sensor chip of the SPR biosensor (Biacore 3000). For GST-HR23B analysis, a GST protein was additionally immobilized and used as a control in order to eliminate possible nonspecific binding of SQAP. SQAP samples at different concentrations were then injected over the proteins immobilized on the sensor chip. As a negative control we used sulfoquynovosylpropanediol (SQP), which lacks the fatty acid moiety of SQAP (Fig. 1). […]
The binding kinetics of SCP-2, MFE-2, ADRM1, HR23B and FAK with SQAP and SQP were analyzed on a Biacore 3000 instrument (GE Healthcare, Little Chalfont, UK). […] The buffer of purified peptides was exchanged to HBS-P (150 mM NaCl, 0.005% Surfactant P20, 10 mM HEPES-NaOH pH 7.4) using a PD 10 column (GE Healthcare, Little Chalfont, UK) and the concentrations were quantified using DC protein assay kit (Bio-Rad Laboratories, Hercules, CA, USA). […] Kinetic parameters were determined by analyzing the data using BIAevaluation 4.1 software (GE Healthcare, Little Chalfont, UK).
On the technique in general: In SPR one partner is held on a chip, and binding of the other changes the refractive index at the surface.

The structures appear in SMILES notation.

As usually defined, the Kd is the equilibrium constant for the complex coming apart.

T1 sequence (Q16186 whole entry): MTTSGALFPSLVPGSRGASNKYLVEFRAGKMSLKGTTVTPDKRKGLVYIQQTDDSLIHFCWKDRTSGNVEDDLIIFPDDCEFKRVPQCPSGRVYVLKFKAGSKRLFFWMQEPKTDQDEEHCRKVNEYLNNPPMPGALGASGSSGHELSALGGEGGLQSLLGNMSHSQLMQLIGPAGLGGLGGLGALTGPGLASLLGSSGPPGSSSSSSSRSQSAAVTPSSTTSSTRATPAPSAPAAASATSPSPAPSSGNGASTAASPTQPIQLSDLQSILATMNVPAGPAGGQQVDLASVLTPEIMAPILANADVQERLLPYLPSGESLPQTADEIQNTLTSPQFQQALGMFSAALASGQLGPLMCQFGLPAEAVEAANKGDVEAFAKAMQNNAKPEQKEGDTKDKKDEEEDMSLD

Regarding `CCCCCCCCCCCCCCCCCC(=O)OCCCO[C@H]1O[C@H](CS(=O)(=O)O)[C@@H](O)[C@H](O)[C@H]1O` [SQAP, sulfoquynovosylacylpropanediol], in test [1], the “phosphorylation of FAK at Y397 and Y925” value is “could inhibit”. For the same compound, in test [2], the “tumor arrest in combination with irradiation” value is given as “synergistically enhanced tumor arrest”. Also, the “Akt phosphorylation at S473” value in test [3] is given as “clearly downregulated”. Further, on ADRM1, the Kd was 9.65 µM.
